Source: US20180057505A1, “BICYCLIC HETEROARYL COMPOUNDS USEFUL AS INHIBITORS OF THE PAR-2 SIGNALING PATHWAY” (VERTEX PHARMACEUTICALS INCORPORATED, priority 2015, published 2018)
pIC50: −log10 of the molar value.

Assays:
Format in all cases: cell-based
PAR2 (HT-29 cells) [1] = molecular target: T1, PAR2 (HT-29 cells) (Homo sapiens, UniProt P55085); experiment: Ca FLIPR TETRA assay, ANTAGONIST mode, activator 3.1 U/mL trypsin; details: HT-29 cells; activator 3.1 U/mL trypsin; Method A: maximal concentration of antagonist 0.1, 1 or 2 μM
T1 construct: host or cells: HT-29
T1 sequence (P55085 26-397): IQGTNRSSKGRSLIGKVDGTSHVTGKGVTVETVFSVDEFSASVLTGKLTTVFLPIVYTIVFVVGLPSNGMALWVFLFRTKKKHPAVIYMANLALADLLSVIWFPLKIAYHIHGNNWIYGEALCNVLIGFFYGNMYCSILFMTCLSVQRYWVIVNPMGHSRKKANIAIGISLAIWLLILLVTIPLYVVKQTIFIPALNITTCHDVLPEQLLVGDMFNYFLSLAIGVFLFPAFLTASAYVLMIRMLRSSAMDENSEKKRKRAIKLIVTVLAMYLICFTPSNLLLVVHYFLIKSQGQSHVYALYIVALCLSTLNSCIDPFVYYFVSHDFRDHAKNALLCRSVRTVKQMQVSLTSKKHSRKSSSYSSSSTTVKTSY
In short: (§1)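 HT-29 cells plated overnight at 37 °C in 1% FBS/McCoy's, loaded with calcium 5 dye (45 min 37 °C, 15 min r.t.), then preincubated with compounds 30 min at r.t. before a fixed activator challenge. Intracellular Ca2+ read by FLIPR Tetra; a first read checks compound-alone activation.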

PAR2 (HT-29 cells) [2] = molecular target: T1, PAR2 (HT-29 cells); experiment: Ca FLIPR TETRA assay, ANTAGONIST mode, activator 8 μM SLIGKV; details: HT-29 cells; activator 8 μM SLIGKV; Method A: maximal concentration of antagonist 0.1, 1 or 2 μM
In short: as §1

[3] = system: UTP-stimulated Ca2+ response in HT-29 cells; experiment: Ca FLIPR TETRA assay, ANTAGONIST mode, activator 0.6 μM UTP; details: HT-29 cells, activator 0.6 μM UTP
In short: as §1

[4] = system: Thrombin-stimulated Ca2+ response in HT-29 cells; experiment: Ca FLIPR TETRA assay, ANTAGONIST mode, activator 1 U/mL Thrombin; details: HT-29 cells, activator 1 U/mL Thrombin
In short: as §1

pIC50 (PAR2 (HT-29 cells) [1]) | pIC50 (PAR2 (HT-29 cells) [2]) | pIC50 ([3]; Homo sapiens) | pIC50 ([4]; Homo sapiens) | pIC50 [3] | pIC50 [4] | SMILES
8.30 | 8.17 | < 5.70 | < 5.70 | – | – | Cn1cnnc1N1CCN(C(=O)c2cc3nc(C4CCC(C)(C)CC4)cc(C(C)(C)C)c3o2)C(C)(C)C1 [Example I-530]
8.55 | 8.82 | < 5.70 | < 5.70 | – | – | CC(C)(C)c1cc(-c2ccc(Cl)cc2)nc2cc(C(=O)N3CCN(c4ccc(-c5nnn[nH]5)cn4)CC3(C)C)oc12 [Example I-531]
9.52 | 9.52 | < 5.70 | < 5.70 | – | – | Cc1ccc(N2CCN(C(=O)c3cc4nc(-c5ccc(Cl)c(F)c5)cc(C(C)(C)C)c4o3)C(C)(C)C2)nc1-c1nnn[nH]1 [Example I-532]
8.77 | 9.15 | < 5.70 | < 5.70 | – | – | Cc1ccc(N2CCN(C(=O)c3cc4nc(C5CCC(C)(C)CC5)cc(C(C)(C)C)c4o3)C(C)(C)C2)nc1-c1nnn[nH]1 [Example I-533]
10.00 | 9.70 | < 5.70 | < 5.70 | – | – | COc1cc(N2CCN(C(=O)c3cc4nc(-c5ccc(Cl)c(F)c5)cc(C(C)(C)C)c4o3)C(C)(C)C2)ncc1C(=O)O [Example I-534]
8.92 | 8.68 | – | – | < 5.70 | < 5.70 | COc1nc(N2CCN(C(=O)c3cc4nc(C5CCC(C)(C)CC5)cc(C(C)(C)C)c4o3)C(C)(C)C2)ccc1C(=O)O [Example I-535]
8.66 | 8.64 | < 5.70 | < 5.70 | – | – | CC(C)(C)c1cc(-c2ccc(Cl)cc2)nc2cc(C(=O)N3CCN(C(=O)[C@@H]4CC[C@H](C(=O)O)C4)CC3(C)C)oc12 [Example I-536]
9.40 | 9.52 | < 5.70 | < 5.70 | – | – | Cc1ccc(N2CCN(C(=O)c3cc4nc(-c5ccc(Cl)cc5)cc(C(C)(C)C)c4o3)C(C)(C)C2)nc1-c1nnn[nH]1 [Example I-537]
9.22 | 9.22 | 5.83 | 5.82 | – | – | Cc1c(C(=O)O)ccnc1N1CCN(C(=O)c2cc3nc(-c4ccc(Cl)c(F)c4)cc(C(C)(C)C)c3o2)C(C)(C)C1 [Example I-538]
8.66 | 8.82 | – | – | < 5.70 | < 5.70 | CC1(C)CCC(c2cc(C(C)(C)C)c3oc(C(=O)N4CCN(c5ccc(-c6nnn[nH]6)cn5)CC4(C)C)cc3n2)CC1 [Example I-539]
9.52 | 9.52 | < 5.70 | < 5.70 | – | – | CC(C)(C)c1cc(-c2ccc(Cl)c(F)c2)nc2cc(C(=O)N3CCN(c4cccc(C(=O)NS(C)(=O)=O)n4)CC3(C)C)oc12 [Example I-540]
9.00 | 8.82 | < 5.70 | < 5.70 | – | – | CC(C)(C)c1cc(-c2ccc(Cl)c(F)c2)nc2cc(C(=O)N3CCC(NC(=O)NS(C)(=O)=O)CC3(C)C)oc12 (stereo not drawn) [Example I-541]
7.55 | 7.49 | < 5.70 | < 5.70 | – | – | CC(C)(C)c1cc(-c2ccc(Cl)c(F)c2)nc2cc(C(=O)N3CCN(S(=O)(=O)NC4CC4)CC3(C)C)oc12 [Example I-542]
9.10 | 9.22 | < 5.70 | < 5.70 | – | – | CC(C)(C)c1cc(-c2ccc(Cl)c(F)c2)nc2cc(C(=O)N3CCN(C(=O)[C@@H]4CC[C@@H]4C(=O)O)CC3(C)C)oc12 [Example I-543]
8.48 | 8.60 | < 5.70 | < 5.70 | – | – | Cc1ncc(N2CCN(C(=O)c3cc4nc(C5CCC(C)(C)CC5)cc(C(C)(C)C)c4o3)C(C)(C)C2)nc1C(=O)O [Example I-544]
9.05 | 9.22 | < 5.70 | < 5.70 | – | – | CC(C)(C)c1cc(-c2ccc(Cl)c(F)c2)nc2cc(C(=O)N3CCN(C(=O)[C@@H]4CCC[C@@H]4C(=O)O)CC3(C)C)oc12 [Example I-545]
8.13 | 8.27 | < 5.70 | < 5.70 | – | – | CC(C)(C)c1cc(-c2ccc(Cl)c(F)c2)nc2cc(C(=O)N3CCN(c4cccc(C(N)=O)n4)CC3(C)C)oc12 [Example I-546]

More lines, now with the values behind:

SMILES | pIC50 (PAR2 (HT-29 cells) [1]) | pIC50 (PAR2 (HT-29 cells) [2]) | pIC50 ([3]; Homo sapiens) | pIC50 ([4]; Homo sapiens) | pIC50 [3] | pIC50 [4]
CC1(C)CCC(c2cc(C(C)(C)C)c3oc(C(=O)N4CCN(C(=O)[C@H]5CC[C@@](C)(C(=O)OCOP(=O)(O)O)CC5)CC4(C)C)cc3n2)CC1 [Example I-509] | 9.30 | 9.70 | < 5.70 | < 5.70 | – | –
CC(C)(C)c1cc(-c2ccc(Cl)c(F)c2)nc2cc(C(=O)N3CCN(c4ccc(C(=O)O)c(N)n4)CC3(C)C)oc12 [Example I-510] | 9.10 | 9.52 | < 5.70 | < 5.70 | – | –
CC(C)(C)c1cc(-c2ccc(Cl)cc2)nc2cc(C(=O)N3CCN(C(=O)[C@@H]4CCCC[C@H]4C(=O)O)CC3(C)C)oc12 [Example I-511] | 7.31 | 7.37 | < 5.70 | < 5.70 | – | –
CC(C)(C)c1cc(-c2ccc(Cl)c(F)c2)nc2cc(C(=O)N3CCN(C(=O)[C@@H]4CC[C@H](C(=O)O)C4)CC3(C)C)oc12 [Example I-512] | 7.74 | 7.72 | < 5.70 | < 5.70 | – | –
CC(C)(C)c1cc(-c2ccc(Cl)c(F)c2)nc2cc(C(=O)N3CCN(c4cc(C(F)(F)F)cnc4C(=O)O)CC3(C)C)oc12 [Example I-515] | 7.68 | 7.80 | < 5.70 | < 5.70 | – | –
CC(C)(C)c1cc(-c2ccc(Cl)c(F)c2)nc2cc(C(=O)N3CCN(c4nc(-c5ccccc5)ccc4C(=O)O)CC3(C)C)oc12 [Example I-516] | 8.57 | 8.74 | < 5.70 | < 5.70 | – | –
CC(C)(C)c1cc(-c2ccc(Cl)c(F)c2)nc2cc(C(=O)N3CCN(c4cc(C(=O)O)c(F)cn4)CC3(C)C)oc12 [Example I-517] | 8.64 | 8.85 | < 5.70 | < 5.70 | – | –
CC(C)(C)c1cc(-c2ccc(Cl)c(F)c2)nc2cc(C(=O)N3CCN(c4ncc(F)cc4C(=O)O)CC3(C)C)oc12 [Example I-518] | 7.77 | 8.00 | < 5.70 | < 5.70 | – | –
CC(C)(C)c1cc(-c2ccc(Cl)c(F)c2)nc2cc(C(=O)N3CCN(c4ncncc4C(=O)O)CC3(C)C)oc12 [Example I-519] | 7.59 | 7.85 | < 5.70 | < 5.70 | – | –
Cc1cnc(N2CCN(C(=O)c3cc4nc(-c5ccc(Cl)c(F)c5)cc(C(C)(C)C)c4o3)C(C)(C)C2)nc1C(=O)O [Example I-520] | 9.40 | 9.52 | < 5.70 | < 5.70 | – | –
Cc1cnc(N2CCN(C(=O)c3cc4nc(-c5ccc(Cl)cc5)cc(C(C)(C)C)c4o3)C(C)(C)C2)nc1C(=O)O [Example I-521] | 8.92 | 9.15 | < 5.70 | < 5.70 | – | –
CN1CCN(C(=O)c2cc3nc(-c4ccc(Cl)c(F)c4)cc(C(C)(C)C)c3o2)C(C)(C)CC1=O [Example I-522] | 8.59 | 8.60 | < 5.70 | < 5.70 | – | –
Cc1cc(C(=O)N2CCN(C(=O)c3cc4nc(C5CCC(C)(C)CC5)cc(C(C)(C)C)c4o3)C(C)(C)C2)[nH]n1 [Example I-523] | 8.72 | 8.70 | < 5.70 | < 5.70 | – | –
Cc1ncc(N2CCN(C(=O)c3cc4nc(-c5ccc(Cl)c(F)c5)cc(C(C)(C)C)c4o3)C(C)(C)C2)nc1C(=O)O [Example I-524] | 8.59 | 8.70 | < 5.70 | < 5.70 | – | –
Cc1ncc(N2CCN(C(=O)c3cc4nc(C5CCC(C)(C)CC5)cc(C(C)(C)C)c4o3)C(C)(C)C2)nc1C(=O)O [Example I-525] | 8.85 | 9.15 | – | – | 5.78 | 5.80
CN1CC(C)(C)N(C(=O)c2cc3nc(-c4ccc(Cl)c(F)c4)cc(C(C)(C)C)c3o2)CCC1=O [Example I-526] | 6.83 | 6.62 | < 5.70 | < 5.70 | – | –
CC(C)(C)c1cc(-c2ccc(Cl)c(F)c2)nc2cc(C(=O)N3CCN(C(=O)NS(C)(=O)=O)CC3(C)C)oc12 [Example I-527] | 7.35 | 7.51 | < 5.70 | < 5.70 | – | –
Cc1cc(C(=O)O)c(N2CCN(C(=O)c3cc4nc(-c5ccc(Cl)c(F)c5)cc(C(C)(C)C)c4o3)C(C)(C)C2)nn1 [Example I-528] | 6.60 | 6.57 | < 5.70 | < 5.70 | – | –
CC(C)(C)c1cc(-c2ccc(Cl)c(F)c2)nc2cc(C(=O)N3CCN(c4ccc(-c5nnn[nH]5)cn4)CC3(C)C)oc12 [Example I-529] | 8.92 | 9.00 | < 5.70 | < 5.70 | – | –
